# Key:
# STAT3 phosphorylation [1] = test: Immunoblot, STAT3 phosphorylation in PC9 cells; type: cell-based; details: for STATS phosphorylation: PC9 cells, 3 days, sorafenib 5 μM or SC-1 20 μM, FIG. 11B
# Method: (§1) Immunoblot was performed using the indicated antibodies.
# FIG. 11: SC-1 prevents resistance of NSCLC cells to EGFR TKI. […] The mean values (±SEM) representative of four independent experiments are represented. (B).
# (§2) Cells were washed once with phosphate-buffered saline (PBS) and lysed on ice in a buffer containing 50 mM Hepes pH 7.6, 150 mM NaCl, 5 mM EDTA, 1% Nonidet P-40, 20 mM NAF, 2 mM sodium orthovanadate, supplemented with protease inhibitor mini tablets (Thermo Scientific). Lysates were cleared by centrifugation at 14,000 g during 15 min at 4° C. and protein concentrations were determined by using the Bradford protein assay (Bio-Rad). Sodium dodecyl sulfate (SDS) loading buffer was added to equal amounts of lysate, followed by SDS-polyacrylamide gel electrophoresis (SDS-PAGE) and transfer to polyvinylidene fluoride (PVDF) membrane (Thermo Scientific). Membranes were analyzed by chemiluminescence using a ChemiDoc imaging system (Biorad). All primary antibodies were purchased from Cell Signaling. Secondary antibodies were purchased from Santa Cruz.
# EGFR = test: Immunoblot, EGFR expression in PC9 cells; type: cell-based; details: 3 days, sorafenib 5 μM or SC-1 20 μM, FIG. 11B
# Method: The fraction of the EGFR-T790T and EGFR-T790M barcodes was assessed by qPCR and normalized to the total amount of gDNA using EGFR_Ctrl primers.
# breast cancer cell lines = details: Liu et al. 2013; cited from earlier work
# STAT3 phosphorylation [2] = details: different cell models, including EGFR-wild type NSCLC cells; Su et al., 2015; Wang et al., 2014; cited from earlier work
# [3] = test system: EGFR-wild type NSCLC cells; details: different cell models, including EGFR-wild type NSCLC cells; Su et al., 2015; Wang et al., 2014; cited from earlier work
# [4] = test system: EGFR wild-type NSCLC cell lines; details: Wang et al 2014; cited from earlier work
# [5] = test system: PC9 cells containing the EGFR-T790M mutation; test: CRISPR-barcoding qPCR: fraction of EGFR-T790M barcode in PC9 cells in the presence of gefitinib; type: cell-based; details: SC-1 20 μM, gefitinib 1 μM, 5 days; FIG. 11A
# Description: (§3) Cells were transfected with a Nucleofector II device (Lonza) using the Amaxa Nucleofector kit (Lonza) and electroporation program recommended by the manufacturer.
# (§4) The set of silent mutations is designed to enable PCR specificity and to avoid recognition by the corresponding sgRNA used to cleave the endogenous sequence. […] Immediately after transfection, the cells were pooled in the same flask.
# (§5) gDNA was extracted using the NucleoSpin Tissue kit (Macherey-Nagel). To avoid potential amplification from ssODN molecules not integrated in the correct genomic locus, one of the two primers was designed to target the endogenous genomic sequence flanking the region sharing homology with the ssODNs.
# as §3, §4
# kinase = details: cited from earlier work
# NSCLC [6] = details: treatment of NSCLC; Shepherd et al 2005; cited from earlier work
# [7] = test system: parental, EGFR-T790M and EGFR-T790M/C797S PC9 cells
# [8] = test system: EGFR-C797S cells within PC9-(EGFR-T790M) cells; test: CRISPR-barcoding qPCR: EGFR-C797S barcode in PC9-(EGFR-T790M) cells; type: cell-based; details: osimertinib 1 μM alone, nine days; FIG. 3A
# Description: as §4, §5
# NSCLC [9] = details: first-line treatment; Soria et al. 2018; cited from earlier work
# [10] = test system: EGFR-C797S cells within PC9-(EGFR-T790M) cells; test: Colony forming assay, EGFR-C797S barcoded PC9-(EGFR-T790M) cells; type: cell-based; details: osimertinib 1 μM alone, 14 days; FIG. 3B
# [11] = test system: EGFR-T790M PC9 cells containing the EGFR-C797S CRISPR-barcode; details: mouse, in vivo
# Method: From day 39, the mice were treated three times per week. The mean tumor size ±SEM is represented for the different groups (5 mice per group).
# The proportions of the barcode in the cells prior to mouse injection was analyzed in parallel and arbitrarily set to 1. (B) For each group, the mean of the values (±SEM) shown in A is represented.
# Gefitinib resistant PC9 cells (EGFR-T790M) containing the EGFR-C797 CRISPR-barcodes were mixed with matrigel and subcutaneously inoculated in the left and right flank (2×10^6 cells per site) of male SCID mice. The size of the tumors was measured by caliper every 3-4 days. […] From day 39, the mice were treated three times per week. Tumors from sacrificed mice were dissected, and gDNA was derived using the DNeasy Blood & Tissue Kit (Qiagen).
# MAPK activation = test: Immunoblot, MAPK activation in PC9 cells; type: cell-based; details: sorafenib 5 μM, 2 or 6 hours; FIG. 4A
# Method: as §1, §2
# MYC transcription factor = test: Immunoblot, MYC expression in PC9 cells; type: cell-based; details: sorafenib 5 μM, two days; parental and EGFR-T790M PC9 cells; FIG. 4B
# Method: as §1, §2
structure (smiles),measurement,setting,value
"N#Cc1ccc(Oc2ccc(NC(=O)Nc3ccc(Cl)c(C(F)(F)F)c3)cc2)cc1 [SC-1, N-[4-Chloro-3-(trifluoromethyl)phenyl]-N′-[4-(4-cyanophenoxy)phenyl]-urea]",STATS phosphorylation,STAT3 phosphorylation [1],inhibited
same,EGFR expression,EGFR,down-regulated
same,apoptosis,breast cancer cell lines,induces apoptosis
same,pSTAT3 inhibition,STAT3 phosphorylation [2],pSTAT3 inhibition
same,growth inhibition,[3],growth inhibition
same,apoptosis,[4],induces apoptosis
same,amplification of EGFR-T790M containing cells in the presence of gefitinib (qPCR),[5],could mimic the effects of sorafenib
same,kinase-inhibition activity,kinase,no kinase-inhibition activity
C#Cc1cccc(Nc2ncnc3cc(OCCOC)c(OCCOC)cc23)c1 [erlotinib],clinical response rate,NSCLC [6],about 8.9%
C=CC(=O)Nc1cc(Nc2nccc(-c3cn(C)c4ccccc34)n2)c(OC)cc1N(C)CCN(C)C [osimertinib],cell growth (colony forming assay),[7],inhibited cell growth
same,amplification of EGFR-C797S cells (qPCR),[8],induced a strong amplification
same,adverse effects compared to first/second generation TKIs,NSCLC [9],less severe adverse effects
same,efficacy compared to first/second generation TKIs,NSCLC [9],superior efficacy
same,amplification of EGFR-C797S cells (colony forming assay),[10],induced a strong amplification
same,growth of the tumors / tumor size,[11],"initially inhibited, but it eventually resumed after a few weeks"
CNC(=O)c1cc(Oc2ccc(NC(=O)Nc3ccc(Cl)c(C(F)(F)F)c3)cc2)ccn1 [sorafenib],STATS phosphorylation,STAT3 phosphorylation [1],inhibited
same,STAT3 phosphorylation,"STAT3 phosphorylation [1]; sorafenib 5 μM, 2 or 6 hours, FIG. 4",rapid inhibition
same,MAPK activation,MAPK activation,no effect
same,expression of MYC transcription factor,MYC transcription factor,down-regulated

# Source: US20200237736A1, “METHODS FOR PREVENTING OR TREATING CANCER RESISTANCE TO EGFR INHIBITION” (INSERM (INSTITUT NATIONAL DE LA SANTE ET DE LA RECHERCHE …, priority 2017, published 2020)
